Read-outs that look alike come from different tables or passages of the source.
Tests used:
mouse adult fibroblasts = test: transcription factor-mediated conversion of mouse adult fibroblasts into Hb9::GFP+ spinal motor neurons (iMN conversion screen); format: cell-based; conditions: days 1-5, 6-10 or 11-15 of reprogramming, FIG. 4
From the text: FIGS. 1A and 1B illustrate the screens performed to identify small molecule enhancers of induced motor neuron (iMN) conversion. FIG. 1A is a schematic illustration depicting the primary screen for small molecules enhancers of iMN conversion via viral transduction with 7 transcription factors performed on fibroblasts harvested from 2 month old Hb9::GFP mice. FIG. 1B is a graphical illustration depicting the results of a secondary screen performed on the top hits identified by the primary screen depicted in FIG. 1A, pointing to two lead compounds as effective enhancers of iMN conversion.
To this end, a functional reprogramming screen was used to identify small molecules that increase the rate of transcription factor-mediated conversion of mouse adult fibroblasts into Hb9::GFP+ spinal motor neurons (FIGS. 1A and 1B). An inhibitor of Activin-like kinases 4/5/7 (FIG. 2A) and a Polo-like kinase I (PLK1) inhibitor (FIG. 2B) each increased induced motor neuron formation by 5-10-fold (FIG. 3). In combination, the chemicals increased the rate of induced motor neuron formation by 50-fold (FIG. 3).

human fibroblasts = conditions: FIG. 7
[1] = test system: Hb9::GFP+ intermediates exhibiting a non-neuronal morphology; conditions: FIG. 6
[2] = test system: fibroblasts transduced with Ascl1, Myt1l, and Brn2
From the text: To determine if Activin inhibition increases conversion into other neuronal types, fibroblasts were transduced with Ascl1, Myt1l, and Brn2, transcription factors that induce the formation of non-motor neurons, and cultured the cells with or without the Activin inhibitor.

`CC[C@@H]1C(=O)N(C)c2cnc(Nc3ccc(C(=O)NC4CCN(C)CC4)cc3OC)nc2N1C1CCCC1` [BI 2536, 4-[[(7R)-8-cyclopentyl-7-ethyl-5-methyl-6-oxo-7H-pteridin-2-yl]amino]-3-methoxy-N-(1-methylpiperidin-4-yl)benzamide] was tested, and the “effect on iMN conversion by time of administration (pulse treatments)” value (“effect on iMN conversion by time” below) (mouse adult fibroblasts) was “improved conversion only during days 6-10” and the “effect on iMN conversion by time” value (mouse adult fibroblasts; listed as PLK1 inhibitor) was “only active during days 6-10”.
In the case of `Cc1cccc(-c2[nH]ncc2-c2ccc3ncccc3n2)n1` [RepSox], the “generation of patient specific human iMNs” value (human fibroblasts) is reported as “promotes generation”, the “survival of Hb9::GFP+ intermediates” value [1] is reported as “promotes survival” and the “induced neuron (iN) conversion” value ([2]; FIG. 9) is reported as “enhances induced neuron (iN) conversion”. For the same molecule, the “increase of the number of neurons generated” value ([2]; with versus without the Activin inhibitor) was 10 fold, the “effect on iMN conversion by time” value (mouse adult fibroblasts) was “improved iMN conversion regardless of the time it is added to the culture medium” and the “effect on iMN conversion by time” value (mouse adult fibroblasts; listed as Activin inhibitor) was “effective when administered from days 1-5, 6-10, or 11-15”. For the same molecule, the “survival of FACS-sorted iMNs” value (FACS-sorted iMNs; SOD1G93A motor neurons, FIG. 5B) was “promotes survival” and the “survival of FACS-sorted iMNs” value (FACS-sorted iMNs; wild-type (WT) motor neurons, FIG. 5A) was “promotes survival”.
